Measurements taken from patent US9475798B2, “Azetidine estrogen receptor modulators and uses thereof” (Genentech, Inc., priority 2013, dated 2016).
Where two headings read alike, the source gives them in different places.

Assays:
ER-α = target: T1, ER-α (Homo sapiens, UniProt P03372); assay: Breast Cancer Cell ER-α In-Cell Western Assay (SP1); type: cell-based; details: MCF7 cells, 4 hours; 100-{100*[(100-% ER level of Example)/(100-% ER level of Fulvestrant)]}
T1 construct: endogenous in cells; host or cells: MCF7
T1 sequence (P03372 1-595): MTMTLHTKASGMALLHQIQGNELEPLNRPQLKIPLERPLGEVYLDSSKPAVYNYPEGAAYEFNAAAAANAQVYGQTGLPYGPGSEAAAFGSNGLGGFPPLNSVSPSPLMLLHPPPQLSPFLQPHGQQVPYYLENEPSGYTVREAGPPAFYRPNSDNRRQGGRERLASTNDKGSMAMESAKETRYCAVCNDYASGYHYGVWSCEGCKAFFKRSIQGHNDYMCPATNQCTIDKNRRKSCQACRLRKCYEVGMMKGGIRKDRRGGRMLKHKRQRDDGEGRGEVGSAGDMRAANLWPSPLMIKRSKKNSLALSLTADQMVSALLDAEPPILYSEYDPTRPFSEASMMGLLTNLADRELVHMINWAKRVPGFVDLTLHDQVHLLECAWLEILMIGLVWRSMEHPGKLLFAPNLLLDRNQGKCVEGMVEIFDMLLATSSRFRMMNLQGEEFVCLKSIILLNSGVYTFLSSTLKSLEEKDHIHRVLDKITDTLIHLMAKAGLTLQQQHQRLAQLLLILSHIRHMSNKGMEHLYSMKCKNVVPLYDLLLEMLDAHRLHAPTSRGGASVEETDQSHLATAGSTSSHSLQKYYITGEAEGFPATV
Description: MCF7 cells were trypsinized and washed twice in Phenol Red Free RPMI containing 5% Charcoal Dextran Stripped serum with 20 mM HEPES and NEAA, then adjusted to a concentration of 200,000 cells per mL with the same medium. […] At 4 hours post compound addition, the cells were fixed by adding 16 μL of 30% formalin to the 32 μL of cells and compound (10% formalin final concentration) for 20 minutes. Cells were then washed twice with PBS Tween 0.1% and then permeabilized in PBS 0.1% Triton (50 μl/well) for additional 15 minutes. The PBS 0.1% triton was decanted, and the cells were washed: LI-COR blocking buffer (50 μL/well) was added, the plate was spun at 3000 rpm, and then the blocking buffer was decanted. Additional LI-COR blocking buffer (50 μL/well) was added, and the cells were incubated overnight at 4° C. The blocking buffer was decanted, and the cells were incubated overnight at 4° C. with SP1 (Thermo Scientific) anti-ER rabbit monoclonal antibody diluted 1:1000 in LI-COR blocking buffer/0.1% Tween-20. Wells which were treated with blocking buffer with Tween but no antibody were used as a background control. Wells were washed twice with PBS Tween 0.1% to remove free SP1 antibodies, and the cells were incubated at room temp for 60-90 minutes in LI-COR goat anti-rabbit IRDye™ 800 CW (1:1000) and DRAQ5 DNA dye (1:10000 of 5 mM stock solution) diluted in LI-COR blocking buffer containing 0.1% Tween-20 and 0.01% SDS. Cells were then washed with 0.1% Tween-20/PBS three times. Plates were scanned on a LI-COR Odyssey infrared imaging system. Integrated intensities in the 800 nm channel and 700 nm channel were measured to determine levels of ER-α and DNA respectively. Percent ER levels were determined as follows: (Integrated intensity 800 nm sample/integrated intensity 700 nm sample)/(Integrated intensity 800 nm untreated cells/integrated intensity 700 nm untreated cells)×100=% ER-α levels.

MCF-7 cells = assay: Breast Cancer Cell Viability Assay (MCF7, CellTiter-Glo); details: for MCF7 Viability Assay: % Viability relative to Fulvestrant: 5 days, 100-{100*[(100-% viability of Example)/(100-% viability of Fulvestrant)]};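 for all read-outs here: CellTiter-Glo luminescence read-out, background from cell-free medium subtracted, viability expressed against untreated cells, ten-point 1:5 compound dilution series spanning 10 to 0.000005 µM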
[1] = read-out: MCF7 Viability Assay IC50, 5 days' compound exposure

Row | SMILES | ER-α In-Cell Western Assay (SP1): % ER-α remaining relative to Fulvestrant (ER-α) [%] | MCF7 Viability Assay: % Viability relative to Fulvestrant (MCF-7 cells) [%] | IC50 (MCF-7 cells; [1]) [nM] | IC50 (MCF-7 cells; read-out: MCF7 Viability Assay IC50, 5 days' compound exposure, cell printed without unit) [nM]
1 | CC1=C(c2ccc(Cl)cc2)C(c2ccc(OCCN3CC(CF)C3)cc2)Oc2cc(O)ccc21 (stereo not shown) [Example 28, 3-(4-Chlorophenyl)-2-(4-(2-(3-(fluoromethyl)azetidin-1-yl)ethoxy)phenyl)-4-methyl-2H-chromen-7-ol] | 3 | 6 | 0.8 | –
2 | CC1=C(c2ccc(F)c(F)c2)C(c2ccc(OCCN3CC(CF)C3)cc2)Oc2ccc(O)cc21 (stereo not shown) [Example 10, 3-(3,4-Difluorophenyl)-2-(4-(2-(3-(fluoromethyl)azetidin-1-yl)ethoxy)phenyl)-4-methyl-2H-chromen-6-ol] | 1 | 2 | 0.41 | –
3 | CC1=C(c2ccc(F)c(F)c2)C(c2ccc(OC[C@H](C)N3CC[C@@H](C)C3)cc2)Oc2ccc(O)cc21 (stereo partly drawn) [3-(3,4-difluorophenyl)-4-methyl-2-(4-((S)-2-((R)-3-methylpyrrolidin-1-yl)propoxy)phenyl)-2H-chromen-6-ol, reference compound] | 14 | 19 | 0.7 | –
4 | CC1=C(c2cccc(O)c2)C(c2ccc(OCCN3CC(C)C3)cc2)Oc2ccc(O)cc21 (stereo not shown) [Example 31, 3-(3-Hydroxyphenyl)-4-methyl-2-(4-(2-(3-methylazetidin-1-yl)ethoxy)phenyl)-2H-chromen-6-ol] | 14 | 13 | 0.2 | –
5 | CC1=C(c2ccc(Cl)cc2)C(c2ccc(OC[C@H](C)N3CC[C@@H](C)C3)cc2)Oc2ccc(O)cc21 (stereo partly drawn) [3-(4-chlorophenyl)-4-methyl-2-(4-((S)-2-((R)-3-methylpyrrolidin-1-yl)propoxy)phenyl)-2H-chromen-6-ol, reference compound] | 15 | 14 | 1.9 | –
6 | CC1=C(c2ccc(Cl)c(F)c2)C(c2ccc(OCCN3CC(CF)C3)cc2)Oc2ccc(O)cc21 (stereo not shown) [Example 16, 3-(4-Chloro-3-fluorophenyl)-2-(4-(2-(3-(fluoromethyl)azetidin-1-yl)ethoxy)phenyl)-4-methyl-2H-chromen-6-ol] | 1 | 1 | 0.71 | –
7 | CC1=C(c2ccc(F)c(Cl)c2)C(c2ccc(OCCN3CC(CF)C3)cc2)Oc2ccc(O)cc21 (stereo not shown) [Example 13, 3-(3-Chloro-4-fluorophenyl)-2-(4-(2-(3-(fluoromethyl)azetidin-1-yl)ethoxy)phenyl)-4-methyl-2H-chromen-6-ol] | 2 | 1 | 0.53 | –
8 | CC1=C(c2ccc(F)cc2)C(c2ccc(OCCN3CC(CF)C3)cc2)Oc2cc(O)ccc21 (stereo not shown) [Example 25, 2-(4-(2-(3-(Fluoromethyl)azetidin-1-yl)ethoxy)phenyl)-3-(4-fluorophenyl)-4-methyl-2H-chromen-7-ol] | 2 | 7 | 0.3 | –
9 | CC1=C(c2ccc(F)cc2)[C@@H](c2ccc(OCCN3CC(CF)C3)cc2)Oc2ccc(O)cc21 (single isomer, unassigned) [Example 2] | – | 3 | 26 | –
10 | CC1=C(c2ccc(F)cc2)C(c2ccc(OCCN3CC(CF)C3)cc2)Oc2ccc(O)cc21 (stereo not shown) [Example 1, 2-(4-(2-(3-(Fluoromethyl)azetidin-1-yl)ethoxy)phenyl)-3-(4-fluorophenyl)-4-methyl-2H-chromen-6-ol] | – | 3 | 0.36 | –
11 | CC1=C(c2ccc(F)cc2)C(c2ccc(OC[C@H](C)N3CC[C@@H](C)C3)cc2)Oc2ccc(O)cc21 (stereo partly drawn) [3-(4-fluorophenyl)-4-methyl-2-(4-((S)-2-((R)-3-methylpyrrolidin-1-yl)propoxy)phenyl)-2H-chromen-6-ol, reference compound] | 18 | 17 | 0.4 | –
12 | CC1=C(c2ccc(C(F)(F)F)cc2)C(c2ccc(OCCN3CC(CF)C3)cc2)Oc2ccc(O)cc21 (stereo not shown) [Example 22, 2-(4-(2-(3-(Fluoromethyl)azetidin-1-yl)ethoxy)phenyl)-4-methyl-3-(4-(trifluoromethyl)phenyl)-2H-chromen-6-ol] | 8 | 6 | 12 | –
13 | CC1=C(c2ccc(F)cc2)[C@H](c2ccc(OC[C@H](C)N3CC[C@@H](C)C3)cc2)Oc2ccc(O)cc21 [(S)-3-(4-fluorophenyl)-4-methyl-2-(4-((S)-2-((R)-3-methylpyrrolidin-1-yl)propoxy)phenyl)-2H-chromen-6-ol, reference compound] | 16 | 14 | – | 0.3
14 | CC1=C(c2ccc(C#N)cc2)C(c2ccc(OC[C@H](C)N3CC[C@@H](C)C3)cc2)Oc2ccc(O)cc21 (stereo partly drawn) [4-(6-hydroxy-4-methyl-2-(4-((S)-2-((R)-3-methylpyrrolidin-1-yl)propoxy)phenyl)-2H-chromen-3-yl)benzonitrile, reference compound] | – | 15 | 10 | –
15 | CC1=C(c2cc(F)c(F)c(F)c2)C(c2ccc(OCCN3CC(CF)C3)cc2)Oc2ccc(O)cc21 (stereo not shown) [Example 19, 2-(4-(2-(3-(Fluoromethyl)azetidin-1-yl)ethoxy)phenyl)-4-methyl-3-(3,4,5-trifluorophenyl)-2H-chromen-6-ol] | 0 | 0 | 0.42 | –
16 | CC1=C(c2ccc(Cl)cc2)C(c2ccc(OCCN3CC(CF)C3)cc2)Oc2ccc(O)cc21 (stereo not shown) [Example 4, 3-(4-Chlorophenyl)-2-(4-(2-(3-(fluoromethyl)azetidin-1-yl)ethoxy)phenyl)-4-methyl-2H-chromen-6-ol] | 3 | 3 | 1.2 | –
17 | CC1=C(c2ccc(C#N)cc2)C(c2ccc(OCCN3CC(CF)C3)cc2)Oc2ccc(O)cc21 (stereo not shown) [Example 7, 4-(2-(4-(2-(3-(Fluoromethyl)azetidin-1-yl)ethoxy)phenyl)-6-hydroxy-4-methyl-2H-chromen-3-yl)benzonitrile] | 2 | 0 | 3.5 | –
18 | CC1=C(c2ccc(F)cc2)[C@@H](c2ccc(OC[C@H](C)N3CC[C@@H](C)C3)cc2)Oc2ccc(O)cc21 [(R)-3-(4-fluorophenyl)-4-methyl-2-(4-((S)-2-((R)-3-methylpyrrolidin-1-yl)propoxy)phenyl)-2H-chromen-6-ol, reference compound] | 13 | – | – | –
